Where two headings read alike, the source gives them in different places. Each block holds one molecule with its values, some of them ahead of it.
Assays:
[1] = target: T1, PKD2 (Homo sapiens, UniProt Q9BZL6); experiment: biochemical; design: Eurofins DiscoverX kinase panel, competitive binding assay at 1 uM, percent of DMSO control; details: competitive binding, percent of DMSO control
T1 construct: gene PRKD2
T1 sequence (Q9BZL6 1-878): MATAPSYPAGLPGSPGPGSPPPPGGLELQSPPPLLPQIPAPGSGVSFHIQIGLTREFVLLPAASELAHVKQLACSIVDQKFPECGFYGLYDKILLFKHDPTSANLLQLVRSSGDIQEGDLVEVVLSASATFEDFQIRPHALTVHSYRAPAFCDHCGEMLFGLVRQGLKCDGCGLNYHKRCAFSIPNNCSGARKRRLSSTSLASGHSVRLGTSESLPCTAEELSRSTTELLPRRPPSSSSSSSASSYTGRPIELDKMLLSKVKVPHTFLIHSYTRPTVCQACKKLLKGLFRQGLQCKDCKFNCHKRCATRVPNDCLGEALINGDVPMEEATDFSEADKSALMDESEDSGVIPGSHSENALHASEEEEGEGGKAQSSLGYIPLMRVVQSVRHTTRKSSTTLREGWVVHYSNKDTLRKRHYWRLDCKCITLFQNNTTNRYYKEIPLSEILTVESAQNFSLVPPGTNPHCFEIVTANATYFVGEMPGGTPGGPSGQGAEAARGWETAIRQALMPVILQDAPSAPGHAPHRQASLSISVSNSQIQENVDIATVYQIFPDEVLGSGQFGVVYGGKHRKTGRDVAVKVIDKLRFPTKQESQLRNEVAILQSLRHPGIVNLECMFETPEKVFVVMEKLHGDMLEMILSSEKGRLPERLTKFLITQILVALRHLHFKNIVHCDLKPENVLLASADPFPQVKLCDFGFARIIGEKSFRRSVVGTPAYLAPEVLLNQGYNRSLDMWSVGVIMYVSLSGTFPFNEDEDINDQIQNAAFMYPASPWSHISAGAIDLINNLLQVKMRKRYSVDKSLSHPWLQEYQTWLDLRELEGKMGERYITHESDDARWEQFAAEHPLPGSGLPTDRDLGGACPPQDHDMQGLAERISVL
Method in brief: (§1)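 Competitive binding assay across a 96-kinase panel with KIF18A compounds at 1 µM; values given as percentage of control (POC), single experiment.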

[2] = target: T2, MNK1b (Homo sapiens, UniProt Q9BUB5); experiment: biochemical; design: Eurofins DiscoverX kinase panel, competitive binding assay at 1 uM, percent of DMSO control; details: competitive binding, percent of DMSO control
T2 construct: gene MKNK1; isoform b
T2 sequence (Q9BUB5 whole entry, canonical isoform): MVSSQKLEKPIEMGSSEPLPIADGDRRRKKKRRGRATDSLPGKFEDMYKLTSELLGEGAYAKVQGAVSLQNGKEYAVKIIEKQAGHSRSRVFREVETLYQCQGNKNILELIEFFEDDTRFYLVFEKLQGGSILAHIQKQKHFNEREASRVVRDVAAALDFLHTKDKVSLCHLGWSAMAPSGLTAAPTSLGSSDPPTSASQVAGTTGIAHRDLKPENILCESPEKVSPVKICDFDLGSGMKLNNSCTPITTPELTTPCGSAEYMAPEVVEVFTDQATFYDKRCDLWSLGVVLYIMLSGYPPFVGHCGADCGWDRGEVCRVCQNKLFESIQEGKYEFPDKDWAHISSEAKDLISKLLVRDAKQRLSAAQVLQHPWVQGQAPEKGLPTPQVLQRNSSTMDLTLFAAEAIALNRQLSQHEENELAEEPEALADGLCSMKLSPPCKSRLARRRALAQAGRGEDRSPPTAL
Method in brief: as §1

[3] = read-out: Kinome Profiling performed by Eurofins DiscoverX / AM-0277, 1.0 µM / POC
[4] = read-out: Kinome Profiling performed by Eurofins DiscoverX / AM-1882, 1.0 µM / POC
[5] = read-out: Kinome Profiling performed by Eurofins DiscoverX / AM-5308, 1.0 µM / POC

- remaining activity at 1 µM [1, 3]: 100%
- remaining activity at 1 µM [2, 3]: 100%
Structure (SMILES): CC(C)(CO)Nc1ccc(C(=O)Nc2cccc(S(=O)(=O)C3CCCC3)c2)c(N2CCC3(CC2)CC3)n1 [AM-0277]

- remaining activity at 1 µM [1, 4]: 64.5%
- remaining activity at 1 µM [2, 4]: 100%
Structure (SMILES): CC(C)(C)NS(=O)(=O)c1cccc(NC(=O)c2ccc(S(=O)(=O)NC(C)(C)C)cc2N2CCC3(CC2)CC3)c1 [AM-1882]

- remaining activity at 1 µM [1, 5]: 100%
- remaining activity at 1 µM [2, 5]: 96.5%
Structure (SMILES): C[C@@H]1CN(c2cccc(NC(=O)c3ccc(NS(=O)(=O)CCO)cc3N3CCC4(CC3)CC4)n2)CCO1 [AM-5308]
